ChEMBL document CHEMBL6071165, “Design, synthesis and biological evaluation of plant-derived miliusol derivatives achieve TNBC profound regression in vivo” (Eur J Med Chem, 2024)
Calls of active or inactive are those of the source. The rule behind the calls is not given here.

Key:
[1] = Selectivity ratio of IC50 for antiproliferative activity against human MCF-10A cells assessed as inhibition of cell proliferation incubated for 24 hrs by MTT assay to IC50 for antiproliferative activity against human BT-549 cells assessed as inhibition of cell proliferation incubated for 24 hrs by MTT assay; type: toxicity, cell-based; conditions: MCF-10A cells versus BT-549 cells, read-out: Ratio IC50
[2] = Selectivity ratio of IC50 for antiproliferative activity against human MCF-10A cells assessed as inhibition of cell proliferation incubated for 48 hrs by MTT assay to IC50 for antiproliferative activity against human BT-549 cells assessed as inhibition of cell proliferation incubated for 48 hrs by MTT assay; type: toxicity, cell-based; conditions: MCF-10A cells versus BT-549 cells, read-out: Ratio IC50
[3] = Selectivity ratio of IC50 for antiproliferative activity against human MCF-10A cells assessed as inhibition of cell proliferation incubated for 48 hrs by MTT assay to IC50 for antiproliferative activity against human MDA-MB-231 cells assessed as inhibition of cell proliferation incubated for 48 hrs by MTT assay; type: cell-based; conditions: MCF-10A cells versus MDA-MB-231 cells, read-out: Ratio IC50
BT-549 [4] = assay: Inhibition of colony formation in human BT-549 cells incubated for 7 days by Crystal violet staining based analysis; type: functional, cell-based; conditions: dose 0.5-2 µM, time 7.0 day
MDA-MB-231 [5] = assay: Inhibition of colony formation in human MDA-MB-231 cells incubated for 7 days by Crystal violet staining based analysis; type: functional, cell-based; conditions: dose 0.5-2 µM, time 7.0 day
BT-549 [6] = assay: Inhibition of tumor sphere formation in human BT-549 cells at 1 uM incubated for 24 hrs by microscopic analysis; type: functional, cell-based
BT-549 [7] = assay: Inhibition of DNA replication in human BT-549 cells assessed as reduction in EDU fluorescence intensity by EDU staining based fluorescence microscopic analysis; type: functional, cell-based; conditions: dose 0.5-2 µM
MDA-MB-231 [8] = assay: Inhibition of cell migration in human MDA-MB-231 cells assessed as decrease in SNAIL level at 1 uM incubated for 24 hrs by DAPI staining based immunofluorescence analysis; type: functional
BT-549 [9] = assay: Inhibition of glycolysis in human BT-549 cells assessed as decrease in LDHA protein level at 0.5 to 2 uM incubated for 24 hrs by Western blot analysis; type: functional, cell-based; conditions: dose 0.5-2 µM
BT-549 [10] = assay: Induction of ER stress in human BT-549 cells assessed as increase in calcium ion content at 2 uM incubated for 24 hrs by Fluo-3AM staining based flow cytometric analysis; type: functional, cell-based
BT-549 [11] = assay: Induction of ER stress in human BT-549 cells assessed as activation of BIP protein level incubated for 24 hrs by Western blot analysis; type: functional, cell-based; conditions: dose 0.5-2 µM
BT-549 [12] = assay: Induction of ER stress in human BT-549 cells assessed as activation of Xbp-1s protein level incubated for 24 hrs by Western blot analysis; type: functional, cell-based; conditions: dose 0.5-2 µM
BT-549 [13] = assay: Induction of apoptosis in human BT-549 cells incubated for 24 hrs by Annexin V-PI staining based flow cytometric analysis; type: functional, cell-based; conditions: dose 0.5-2 µM
MDA-MB-231 [14] = assay: Induction of apoptosis in human MDA-MB-231 cells assessed as early apoptotic cells at 2 uM incubated for 24 hrs by Annexin V-PI staining based flow cytometric analysis (reference value: 0.42%); type: functional
MDA-MB-231 [15] = assay: Induction of apoptosis in human MDA-MB-231 cells assessed as late apoptotic cells at 2 uM incubated for 24 hrs by Annexin V-PI staining based flow cytometric analysis (reference value: 1.83%); type: functional
MDA-MB-231 [16] = assay: Induction of apoptosis in human MDA-MB-231 cells assessed as upregulation of cleavage of caspase-3 expression at 0.5 to 2 uM incubated for 24 hrs by Western blot analysis; type: functional, cell-based; conditions: dose 0.5-2 µM
BT-549 [17] = assay: Induction of apoptosis in human BT-549 cells assessed as upregulation of cleavage of caspase-8 expression at 0.5 to 2 uM incubated for 24 hrs by Western blot analysis; type: functional, cell-based; conditions: dose 0.5-2 µM
BT-549 [18] = assay: Induction of apoptosis in human BT-549 cells assessed as upregulation of cleavage of caspase-9 expression at 0.5 to 2 uM incubated for 24 hrs by Western blot analysis; type: functional, cell-based; conditions: dose 0.5-2 µM
MDA-MB-231 [19] = assay: Induction of apoptosis in human MDA-MB-231 cells assessed as upregulation of cleavage of PARP level at 0.5 to 2 uM incubated for 24 hrs by Western blot analysis; type: functional, cell-based; conditions: dose 0.5-2 µM
MDA-MB-231 [20] = assay: Antitumor activity against human MDA-MB-231 cells xenografted in female BALB/c mouse model assessed as reduction in tumor weight administered subcutaneously and measured every day; type: functional, cell-based; conditions: dose 5-20 mg/kg, route sc
[21] = Toxicity in female BALB/c mouse xenografted with human MDA-MB-231 cells assessed as effect on pathological changes in liver at 5 to 20 mg/kg, sc by H and E staining based analysis; type: organism-based; conditions: in vivo, dose 5-20 mg/kg
[22] = Toxicity in female BALB/c mouse xenografted with human BT-549 cells assessed as effect on pathological changes in liver at 5 to 20 mg/kg, sc by H and E staining based analysis; type: organism-based; conditions: in vivo, dose 5-20 mg/kg
[23] = Toxicity in female BALB/c mouse xenografted with human MDA-MB-231 cells assessed as effect on pathological changes in lung at 5 to 20 mg/kg, sc by H and E staining based analysis; type: organism-based; conditions: in vivo, dose 5-20 mg/kg
MDA-MB-231 [24] = assay: Antiproliferative activity against human MDA-MB-231 cells xenografted in female BALB/c mouse model assessed as inhibition of Ki-67 expression at 5 to 20 mg/kg administered subcutaneously by immunohistochemical staining based microscopic analysis; type: functional, organism-based; conditions: dose 5-20 mg/kg, route sc
MDA-MB-231 [25] = assay: Antiproliferative activity against human MDA-MB-231 cells xenografted in female BALB/c mouse model assessed as increase in E-cadherin level at 5 to 20 mg/kg administered subcutaneously by immunohistochemical staining based microscopic analysis; type: functional, organism-based; conditions: dose 5-20 mg/kg, route sc
BT-549 [26] = assay: Antiproliferative activity against human BT-549 cells xenografted in female BALB/c mouse model assessed as fold change in downregulation of MMP-2 protein level at 5 mg/kg administered subcutaneously incubated for 24 hrs by Western blot analysis (reference value: 1.00%); type: functional; conditions: route sc
MDA-MB-231 [27] = assay: Antiproliferative activity against human MDA-MB-231 cells xenografted in female BALB/c mouse model assessed as fold change in upregulation of BIP protein level at 20 mg/kg administered subcutaneously incubated for 24 hrs by Western blot analysis (reference value: 1.00%); type: functional; conditions: route sc
BT-549 [28] = assay: Antiproliferative activity against human BT-549 cells xenografted in female BALB/c mouse model assessed as fold change in upregulation of BAX protein level at 5 mg/kg administered subcutaneously incubated for 24 hrs by Western blot analysis (reference value: 1.00%); type: functional; conditions: route sc
BT-549 [29] = assay: Antiproliferative activity against human BT-549 cells xenografted in female BALB/c mouse model assessed as fold change in upregulation of BAX protein level at 10 mg/kg administered subcutaneously incubated for 24 hrs by Western blot analysis (reference value: 1.00%); type: functional; conditions: route sc
BT-549 [30] = assay: Antiproliferative activity against human BT-549 cells xenografted in female BALB/c mouse model assessed as as fold change in cleavage of caspase-3 level at 10 mg/kg administered subcutaneously incubated for 24 hrs by Western blot analysis (reference value: 1.00%); type: functional; conditions: route sc
[31] = Toxicity in female BALB/c mouse assessed as change in heart administered subcutaneously measured upto 16 days; type: tissue-based; conditions: in vivo, sc, 384 h, time < 16 day

With `CC(C)=CCC/C(C)=C/[C@H]1OC(=O)CC12C[C@H](OC(=O)Cc1ccc(NC(=O)/C=C/c3ccccc3)cc1)C=CC2=O` (stereo partly specified) the selectivity ratio at 24 h [1] was 57.7, the selectivity ratio at 48 h [2] was 72.7 and the selectivity ratio at 48 h [3] was 36.4. The inhibition (BT-549 [4]) was “Dose-Dependent Effect”, the inhibition (MDA-MB-231 [5]) was “Dose-Dependent Effect” and the inhibition (BT-549 [6]) was “Active”. The inhibition (BT-549 [7]) was “Dose-Dependent Effect”, the inhibition (MDA-MB-231 [8]) was “Active” and the inhibition (BT-549 [9]) was “Active”. For the same compound, the Activity (BT-549 [10]) was “Active”, the Activity (BT-549 [11]) was “Dose-Dependent Effect” and the Activity (BT-549 [12]) was “Active”. For the same compound, the Activity (BT-549 [13]) was “Dose-Dependent Effect”, the Activity (MDA-MB-231 [14]) was 2.23% and the Activity (MDA-MB-231 [15]) was 42.4%. The Activity (MDA-MB-231 [16]) was “Active”, the Activity (BT-549 [17]) was “Active” and the Activity (BT-549 [18]) was “Active”. The Activity (MDA-MB-231 [19]) was “Active”, the Activity (MDA-MB-231 [20]) was “Dose-Dependent Effect” and the Activity [21] was “Non-Toxic”. The Activity [22] was “Non-Toxic”, the Activity [23] was “Non-Toxic” and the Activity (MDA-MB-231 [24]) was “Active”. The Activity (MDA-MB-231 [25]) was “Active”, the “fold change (FC)” value (BT-549 [26]) was 0.99 and the “fold change (FC)” value (MDA-MB-231 [27]) was 2.42. For the same compound, the “fold change (FC)” value (BT-549 [28]) was 1.4, the “fold change (FC)” value (BT-549 [29]) was 1.61 and the “fold change (FC)” value (BT-549 [30]) was 1.72. For the same compound, the Activity [31] was “Non-Toxic”.
